Biological target: T1, Human STING (Homo sapiens, UniProt Q86WV6, G230A/H232R/R293Q/R71H)
T1 construct: host or cells: THP1-Dual cells, digitonin-permeabilized
Test: Activation of human STING signaling in permeabilized THP1 cells, IRF3 induction
Type: cell-based
Settings: THP1-Dual cells permeabilized with digitonin buffer 30 minutes on ice, then 24 h in RPMI media
Protocol: To evaluate IRF3 reporter levels, cell culture supernatant (20 μl) from each incubated sample was added to QUANTI-Luc™ assay solution (Invivogen, 50 μl), and the luminescence was measured with a SpectraMax M3 spectrophotometer (Molecular Devices).
4×10^5 THP1-Dual™ cells (NF-κB-SEAP and IRF-Lucia luciferase Reporter Monocytes, Invivogen) were incubated with test Compounds in a 5-fold titration steps from […] in permeabilized buffer (50 mM HEPES pH 7.0, 100 mM KCl, 3 mM MgCl2, 85 mM sucrose, 0.2% BSA, 1 mM ATP, 0.1 mM GTP, 0.1 mM TTP, 1 μg/ml digitonin) for 30 minutes on ice. Cells were then washed and incubated in a fresh RPMI media with 10% FBS at 37° C. with 5% CO2 for 24 h. Cell culture supernatants from each sample were collected and NFkB and IRF3 were evaluated as above. Table 3 provides the results for IRF3 induction (“A” means <1 μM; “B” means ≥1 μM and <50 μM; “C” means ≥50 μM).

T1 sequence (Q86WV6 whole entry R71H/G230A/H232R/R293Q): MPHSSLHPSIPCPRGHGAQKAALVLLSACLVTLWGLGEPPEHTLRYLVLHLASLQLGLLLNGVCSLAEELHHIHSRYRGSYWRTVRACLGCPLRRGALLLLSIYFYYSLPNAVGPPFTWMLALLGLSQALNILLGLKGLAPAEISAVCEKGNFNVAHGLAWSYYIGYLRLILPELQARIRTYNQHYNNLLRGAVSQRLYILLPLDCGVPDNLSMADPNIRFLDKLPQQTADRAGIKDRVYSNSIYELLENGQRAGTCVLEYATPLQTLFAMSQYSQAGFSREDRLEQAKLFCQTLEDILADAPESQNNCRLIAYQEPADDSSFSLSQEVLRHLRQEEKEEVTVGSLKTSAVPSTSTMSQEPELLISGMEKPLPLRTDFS

EC50	Structure (SMILES)
≥ 50000 nM	CCn1nc(C)cc1C(=O)Nc1nc2cc(CNC(C)=O)cnc2n1C/C=C/Cn1c(NC(=O)c2cc(C)nn2CC)nc2cc(C(N)=O)cc(OC)c21 [Compound 137]
≥ 50000 nM	CCc1nc(C)oc1C(=O)Nc1nc2cc(C(N)=O)cc(OC)c2n1C/C=C/Cn1c(NC(=O)c2cnco2)nc2cc(C(N)=O)cc(OCCCO)c21 [Compound 138]
≥ 50000 nM	CCc1nc(C)oc1C(=O)Nc1nc2cc(C(N)=O)cc(O)c2n1C/C=C/Cn1c(NC(=O)c2oc(C)nc2CC)nc2cc(C(N)=O)cc(O)c21 [Compound 139]
< 1000 nM	CCn1nc(C)cc1C(=O)/N=c1\sc2cc(C(N)=O)cnc2n1C/C=C/Cn1c(NC(=O)c2cc(C)nn2CC)nc2cc(C(N)=O)cc(OCCCC(=O)O)c21 [Compound 140]
1000 to 50000 nM	CCc1nc(C)sc1C(=O)Nc1nc2cc(C(N)=O)cc(OC)c2n1C/C=C/Cn1c(NC(=O)c2sc(C)nc2CC)nc2cc(C(N)=O)cc(OCCCC(=O)O)c21 [Compound 141]
< 1000 nM	CCc1nc(C)oc1C(=O)/N=c1\sc2cc(C(N)=O)cnc2n1C/C=C/Cn1c(NC(=O)c2sc(C)nc2CC)nc2cc(C(N)=O)cc(OCCCO)c21 [Compound 142]
< 1000 nM	CCc1nc(C)oc1C(=O)Nc1nc2cc(C(N)=O)cnc2n1C/C=C/Cn1c(NC(=O)c2sc(C)nc2CC)nc2cc(C(N)=O)cc(OCCCO)c21 [Compound 143]
≥ 50000 nM	CCc1nc(C)sc1C(=O)Nc1nc2cc(C(N)=O)cnc2n1C/C=C/Cn1c(NC(=O)c2sc(C)nc2CC)nc2cc(C(N)=O)cc(OCCCO)c21 [Compound 144]
≥ 50000 nM	CCc1nc(C)sc1C(=O)/N=c1\sc2cc(C(N)=O)cnc2n1C/C=C/Cn1c(NC(=O)c2sc(C)nc2CC)nc2cc(C(N)=O)cc(OCCCO)c21 [Compound 145]
1000 to 50000 nM	CCn1nc(C)cc1C(=O)/N=c1\sc2cc(C(N)=O)cc(OCCCO)c2n1C/C=C/Cn1c(NC(=O)c2cc(C)nn2CC)nc2cc(C(N)=O)cnc21 [Compound 147]
< 1000 nM	CCc1nc(C)oc1C(=O)Nc1nc2cc(C(N)=O)cc(OC)c2n1C/C=C/Cn1c(NC(=O)c2sc(C)nc2CC)nc2cc(C(N)=O)cc(OCCCC(=O)O)c21 [Compound 149]
< 1000 nM	CCc1nc(C)oc1C(=O)Nc1nc2cc(C(N)=O)cc(OCCCC(=O)O)c2n1C/C=C/Cn1/c(=N/C(=O)c2cc(C)nn2CC)sc2cc(C(N)=O)cc(OC)c21 [Compound 150]
< 1000 nM	CCc1nc(C)oc1C(=O)Nc1nc2cc(C(N)=O)cnc2n1C/C=C/Cn1c(NC(=O)c2sc(C)nc2CC)nc2cc(C(N)=O)cc(OCCCC(=O)O)c21 [Compound 151]
< 1000 nM	CCc1nc(C)oc1C(=O)/N=c1\sc2cc(C(N)=O)cnc2n1C/C=C/Cn1c(NC(=O)c2oc(C)nc2CC)nc2cc(C(N)=O)cc(OCCCC(=O)O)c21 [Compound 155]
< 1000 nM	CCc1nc(C)sc1C(=O)Nc1nc2cc(C(N)=O)cc(OC)c2n1C/C=C/Cn1c(NC(=O)c2sc(C)nc2CC)nc2cc(C(N)=O)cc(OCCCO)c21 [compound 10]
1000 to 50000 nM	CCc1nn(C)cc1C(=O)Nc1nc2cc(C(N)=O)cc(OC)c2n1C/C=C/Cn1c(NC(=O)c2cn(C)nc2CC)nc2cc(C(N)=O)cc(OCCCO)c21 [compound 11]
1000 to 50000 nM	COc1cc(C(N)=O)cc2nc(NC(=O)c3cc(C)no3)n(C/C=C/Cn3c(NC(=O)c4cc(C)no4)nc4cc(C(N)=O)cc(OCCCO)c43)c12 [compound 12]
≥ 50000 nM	COc1cc(C(N)=O)cc2nc(NC(=O)c3nc(C)oc3C)n(C/C=C/Cn3c(NC(=O)c4nc(C)oc4C)nc4cc(C(N)=O)cc(OCCCO)c43)c12 [compound 13]
≥ 50000 nM	COc1cc(C(N)=O)cc2nc(NC(=O)c3cc4ncccc4o3)n(C/C=C/Cn3c(NC(=O)c4cc5ncccc5o4)nc4cc(C(N)=O)cc(OCCCO)c43)c12 [compound 14]
≥ 50000 nM	COc1cc(C(N)=O)cc2nc(NC(=O)c3nccn3C(C)C)n(C/C=C/Cn3c(NC(=O)c4nccn4C(C)C)nc4cc(C(N)=O)cc(OCCCO)c43)c12 [compound 15]

The next lines start with the molecule.

Structure (SMILES)	EC50
CCc1nc(C)oc1C(=O)Nc1nc2cc(C(N)=O)cc(OCCCO)c2n1C/C=C/Cn1c(NC(=O)c2cc(C)nn2CC)nc2cc(C(N)=O)cnc21 [Compound 111]	< 1000 nM
CCn1nc(C)cc1C(=O)Nc1nc2cc(C(N)=O)cnc2n1C/C=C/Cn1c(NC(=O)c2cc(C)nn2CC)nc2cc(C(N)=O)cc(OCCCC(=O)O)c21 [Compound 112]	< 1000 nM
CCn1nc(C)cc1C(=O)Nc1nc2cc(C(N)=O)cnc2n1C/C=C/Cn1c(NC(=O)c2oc(C)nc2C)nc2cc(C(N)=O)cc(OCCCO)c21 [Compound 113]	1000 to 50000 nM
CCn1nc(C)cc1C(=O)Nc1nc2cccnc2n1C/C=C/Cn1c(NC(=O)c2cc(C)nn2CC)nc2cc(C(N)=O)cc(OCCCO)c21 [Compound 114]	1000 to 50000 nM
CCn1nc(C)cc1C(=O)/N=c1\sc2cc(C(=O)OC)cc(OC)c2n1C/C=C/Cn1c(NC(=O)c2cc(C)nn2CC)nc2cc(C(N)=O)cc(OCCCO)c21 [Compound 115]	< 1000 nM
CCn1nc(C)cc1C(=O)Nc1nc2cc(CN)cnc2n1C/C=C/Cn1c(NC(=O)c2cc(C)nn2CC)nc2cc(C(N)=O)cc(OCCCO)c21 [Compound 122]	< 1000 nM
CCn1nc(C)cc1C(=O)Nc1nc2cc(C(=O)OC)cnc2n1C/C=C/Cn1c(NC(=O)c2cc(C)nn2CC)nc2cc(C(N)=O)cc(OCCCO)c21 [Compound 123]	< 1000 nM
CCn1nc(C)cc1C(=O)Nc1nc2cc(CN(C)C)cnc2n1C/C=C/Cn1c(NC(=O)c2cc(C)nn2CC)nc2cc(C(N)=O)cc(OCCCO)c21 [Compound 125]	< 1000 nM
CCn1nc(C)cc1C(=O)Nc1nc2cc(CNC(C)=O)cnc2n1C/C=C/Cn1c(NC(=O)c2cc(C)nn2CC)nc2cc(C(N)=O)cc(OCCCO)c21 [Compound 126]	< 1000 nM
CCc1nc(C)oc1C(=O)Nc1nc2cc(CN)cc(OC)c2n1C/C=C/Cn1c(NC(=O)c2oc(C)nc2CC)nc2cc(C(N)=O)cc(OCCCO)c21 [Compound 128]	< 1000 nM
CCn1nc(C)cc1C(=O)Nc1nc2cc(CN)cnc2n1C/C=C/Cn1c(NC(=O)c2cc(C)nn2CC)nc2cc(C(N)=O)cc(OC)c21 [Compound 129]	1000 to 50000 nM
CCc1nc(C)oc1C(=O)Nc1nc2cc(CNC(C)=O)cc(OC)c2n1C/C=C/Cn1c(NC(=O)c2oc(C)nc2CC)nc2cc(C(N)=O)cc(OCCCO)c21 [Compound 130]	1000 to 50000 nM
CCc1nc(C)oc1C(=O)Nc1nc2cc(NC(C)=O)cc(OC)c2n1C/C=C/Cn1c(NC(=O)c2oc(C)nc2CC)nc2cc(C(N)=O)cc(OCCCO)c21 [Compound 131]	1000 to 50000 nM
CCn1nc(C)cc1C(=O)Nc1nc2cc(CN(C)C)cnc2n1C/C=C/Cn1c(NC(=O)c2cc(C)nn2CC)nc2cc(C(N)=O)cc(OC)c21 [Compound 132]	1000 to 50000 nM
CCc1nc(C)oc1C(=O)Nc1nc2cc(CN(C)C)cc(OC)c2n1C/C=C/Cn1c(NC(=O)c2oc(C)nc2CC)nc2cc(C(N)=O)cc(OCCCO)c21 [Compound 133]	1000 to 50000 nM
CCn1nc(C)cc1C(=O)Nc1nc2cc(N)cnc2n1C/C=C/Cn1c(NC(=O)c2cc(C)nn2CC)nc2cc(C(N)=O)cc(OC)c21 [Compound 134]	< 1000 nM
CCc1nc(C)oc1C(=O)Nc1nc2cc(N)cc(OC)c2n1C/C=C/Cn1c(NC(=O)c2oc(C)nc2CC)nc2cc(C(N)=O)cc(OCCCO)c21 [Compound 135]	1000 to 50000 nM
CCc1nc(C)oc1C(=O)Nc1nc2cc(C(N)=O)cc(OC)c2n1C/C=C/Cn1c(NC(=O)c2cnc(C)o2)nc2cc(C(N)=O)cc(OCCCO)c21 [Compound 136]	≥ 50000 nM

From patent US11155567B2, “Sting agonist compounds and methods of use” (Mersana Therapeutics, Inc., priority 2019, dated 2021)
